Laboratory results as given in ChEMBL document CHEMBL1201862, “PubChem BioAssay data set” (2004).
Activity calls are given as the source filed them.

Experiments:
[1] = molecular target: T1, Neuropeptides B/W receptor type 1 (Homo sapiens, UniProt P48145); assay: GPR7 antagonist potency, late-stage follow-up, cell-based, fluorescence, dose response, set 5 (AID 588566); type: functional
T1 sequence (P48145 whole entry): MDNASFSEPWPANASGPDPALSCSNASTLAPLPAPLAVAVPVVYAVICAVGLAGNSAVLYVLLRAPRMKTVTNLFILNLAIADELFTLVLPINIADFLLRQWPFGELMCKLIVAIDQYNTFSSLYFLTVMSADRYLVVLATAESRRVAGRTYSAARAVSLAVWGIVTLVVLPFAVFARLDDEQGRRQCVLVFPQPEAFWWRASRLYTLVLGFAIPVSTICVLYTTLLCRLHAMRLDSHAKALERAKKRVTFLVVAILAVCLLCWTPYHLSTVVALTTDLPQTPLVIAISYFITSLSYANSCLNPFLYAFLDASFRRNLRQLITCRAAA

[2] = molecular target: Melanin-concentrating hormone receptor 1 (Homo sapiens, UniProt Q99705); assay: Late-stage fluorescence-based counterscreen for antagonists of the G-protein coupled receptor 7 (GPR7): cell-based dose response assay to identify antagonists of the melanin-concentrating hormone receptor 1 (MCHR1) Set 5.; type: functional
H4 [3] = assay: inhibitors of control reporter signal in H4 cells – cell-based, plate reader, dry powder samples, counter-screen for prion reporter project, dose response (AID 540255); type: functional; conditions: Homo sapiens
[4] = molecular target: Luciferin 4-monooxygenase (Photinus pyralis, UniProt P08659); assay: firefly luciferase enzyme inhibitors, dose response, biochemical, dry powder samples, plate reader (AID 588451)
H4 [5] = assay: Inhibitors of Prion Protein 5' UTR mRNA Measured in Cell-Based System Using Plate Reader - 2078-01_Inhibitor_Dose_DryPowder_Activity. [Related pubchem assays (depositor defined):AID488894]; type: functional; conditions: Homo sapiens
H4 [6] = assay: Amyloid Precursor 5' UTR neuroblastoma cell reporter line Measured in Cell-Based System Using Plate Reader - 2078-04_Inhibitor_Dose_DryPowder_Activity. [Related pubchem assays (depositor defined):AID488894]; type: functional; conditions: Homo sapiens
[7] = cytotoxicity in HEK-293T cells, dose response, cytotoxicity control for BCR NF-kB inhibitor project, luminescence, B-cell screen hits (AID 489021); type: functional, cell-based;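 also: HEK-293T cells carrying an NF-kB luciferase reporter; cells exposed to compound for about 14 hours before viability readout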
[8] = molecular target: T2, Sentrin-specific protease 6 (Homo sapiens, UniProt Q9GZR1); assay: SAR Analysis of small molecule inhibitors of Sentrin-specific protease 6 (SENP6) using a Luminescent assay. [Related pubchem assays (depositor defined):AID2582, AID2599]; type: functional
T2 sequence (Q9GZR1 whole entry): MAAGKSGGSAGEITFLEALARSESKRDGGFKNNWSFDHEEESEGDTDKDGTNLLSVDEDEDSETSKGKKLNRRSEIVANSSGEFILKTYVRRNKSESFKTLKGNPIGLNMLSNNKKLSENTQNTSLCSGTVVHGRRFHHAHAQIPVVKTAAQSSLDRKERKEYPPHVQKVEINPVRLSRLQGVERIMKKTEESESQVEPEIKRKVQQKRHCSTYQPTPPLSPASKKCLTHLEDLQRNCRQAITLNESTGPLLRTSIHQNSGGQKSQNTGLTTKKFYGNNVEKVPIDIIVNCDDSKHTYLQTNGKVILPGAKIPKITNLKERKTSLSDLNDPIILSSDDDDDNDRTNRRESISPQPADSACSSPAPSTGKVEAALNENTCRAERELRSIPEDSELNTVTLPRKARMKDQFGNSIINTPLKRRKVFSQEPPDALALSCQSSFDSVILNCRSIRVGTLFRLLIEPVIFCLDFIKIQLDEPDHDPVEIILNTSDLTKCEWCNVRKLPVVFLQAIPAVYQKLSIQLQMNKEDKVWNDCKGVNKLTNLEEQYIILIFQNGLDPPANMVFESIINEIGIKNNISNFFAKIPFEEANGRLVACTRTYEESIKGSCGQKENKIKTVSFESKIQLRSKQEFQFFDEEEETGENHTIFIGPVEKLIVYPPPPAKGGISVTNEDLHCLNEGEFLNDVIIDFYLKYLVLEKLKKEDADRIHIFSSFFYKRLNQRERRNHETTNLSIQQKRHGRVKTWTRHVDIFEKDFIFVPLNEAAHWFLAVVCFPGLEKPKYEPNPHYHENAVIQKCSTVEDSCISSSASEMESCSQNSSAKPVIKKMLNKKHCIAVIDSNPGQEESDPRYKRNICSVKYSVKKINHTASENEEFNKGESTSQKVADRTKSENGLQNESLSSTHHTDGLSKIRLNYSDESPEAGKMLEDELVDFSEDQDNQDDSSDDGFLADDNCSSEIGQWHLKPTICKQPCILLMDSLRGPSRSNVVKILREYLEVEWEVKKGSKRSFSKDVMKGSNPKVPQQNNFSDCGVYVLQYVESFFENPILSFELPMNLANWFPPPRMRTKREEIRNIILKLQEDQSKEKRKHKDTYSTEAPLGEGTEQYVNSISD

Caspase-3 = molecular target: T3, Caspase-3 (Homo sapiens, UniProt P42574); assay: SAR Analysis of small molecule inhibitors of Sentrin-specific proteases (SENPs) using a Caspase-3 Selectivity assay. [Related pubchem assays (depositor defined):AID2540, AID2599, AID434973, AID489001]; type: functional
T3 sequence (P42574 whole entry): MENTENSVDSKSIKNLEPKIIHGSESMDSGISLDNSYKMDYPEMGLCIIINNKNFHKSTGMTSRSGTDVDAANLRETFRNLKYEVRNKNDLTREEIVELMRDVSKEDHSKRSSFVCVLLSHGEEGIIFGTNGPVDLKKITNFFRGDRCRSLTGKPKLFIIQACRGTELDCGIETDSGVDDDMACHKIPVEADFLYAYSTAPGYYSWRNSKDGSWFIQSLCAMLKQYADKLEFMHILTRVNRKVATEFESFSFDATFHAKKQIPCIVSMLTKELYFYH

[9] = molecular target: T4, Sentrin-specific protease 8 (Homo sapiens, UniProt Q96LD8); assay: SENP8 protease inhibitors, SAR follow-up, biochemical, luminescence, set 2 (AID 588601); type: functional
T4 sequence (Q96LD8 whole entry): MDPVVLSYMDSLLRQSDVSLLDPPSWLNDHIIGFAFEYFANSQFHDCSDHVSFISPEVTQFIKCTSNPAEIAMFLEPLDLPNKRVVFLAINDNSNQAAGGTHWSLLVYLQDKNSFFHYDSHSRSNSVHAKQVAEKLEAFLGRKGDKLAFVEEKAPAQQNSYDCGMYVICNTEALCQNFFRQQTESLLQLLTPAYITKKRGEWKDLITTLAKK

[10] = molecular target: T5, Sentrin-specific protease 7 (Homo sapiens, UniProt Q9BQF6); assay: SENP7 protease inhibitors, SAR follow-up, biochemical, luminescence, set 2 (AID 588600); type: functional
T5 sequence (Q9BQF6 whole entry): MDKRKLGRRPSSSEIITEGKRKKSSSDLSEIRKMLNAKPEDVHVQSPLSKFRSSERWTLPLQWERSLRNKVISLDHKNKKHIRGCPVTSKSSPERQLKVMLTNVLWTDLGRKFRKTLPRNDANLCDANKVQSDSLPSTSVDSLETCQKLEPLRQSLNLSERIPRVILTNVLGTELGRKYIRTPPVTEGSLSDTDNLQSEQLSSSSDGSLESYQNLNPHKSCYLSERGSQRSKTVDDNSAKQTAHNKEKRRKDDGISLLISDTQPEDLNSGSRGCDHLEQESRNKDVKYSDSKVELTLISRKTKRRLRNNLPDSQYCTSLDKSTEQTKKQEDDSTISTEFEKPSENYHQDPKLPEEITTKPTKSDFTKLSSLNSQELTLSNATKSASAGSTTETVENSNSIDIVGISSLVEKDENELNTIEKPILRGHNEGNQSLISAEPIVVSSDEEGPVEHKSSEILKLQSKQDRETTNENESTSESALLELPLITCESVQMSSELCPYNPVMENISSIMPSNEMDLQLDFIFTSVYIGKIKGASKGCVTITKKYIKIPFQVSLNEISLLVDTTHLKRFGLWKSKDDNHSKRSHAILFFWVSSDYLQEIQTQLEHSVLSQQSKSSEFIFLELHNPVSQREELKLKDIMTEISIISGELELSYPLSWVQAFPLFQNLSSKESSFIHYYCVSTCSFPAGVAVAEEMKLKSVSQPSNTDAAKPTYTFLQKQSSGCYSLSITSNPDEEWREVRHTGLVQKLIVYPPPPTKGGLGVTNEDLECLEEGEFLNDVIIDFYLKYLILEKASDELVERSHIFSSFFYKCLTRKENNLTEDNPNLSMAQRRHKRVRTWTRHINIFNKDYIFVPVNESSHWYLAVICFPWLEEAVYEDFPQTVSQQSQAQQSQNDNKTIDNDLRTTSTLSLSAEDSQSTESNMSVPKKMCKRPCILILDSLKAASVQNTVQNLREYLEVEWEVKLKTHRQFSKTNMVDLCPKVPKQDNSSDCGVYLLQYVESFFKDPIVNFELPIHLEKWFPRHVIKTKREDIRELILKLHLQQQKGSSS

[11] = molecular target: T2, Sentrin-specific protease 6; assay: SENP6 protease inhibitors, SAR follow-up, biochemical, luminescence, set 2 (AID 588598); type: functional
[12] = molecular target: T4, Sentrin-specific protease 8; assay: SENP8 protease inhibitors, SAR follow-up, biochemical, luminescence (AID 504501); type: functional
[13] = molecular target: T5, Sentrin-specific protease 7; assay: SENP7 protease inhibitors, SAR follow-up, biochemical, luminescence (AID 504497); type: functional
[14] = molecular target: T6, Long-chain-fatty-acid--AMP ligase FadD28 (Mycobacterium tuberculosis, UniProt P9WQ59); assay: Fluorescence polarization aasay to screen for inhibitors that compete for the binding of FadD28 to a bisubstrate Measured in Biochemical System Using Plate Reader - 2147-01_Inhibitor_Dose_CherryPick_Activity.; type: functional, Mycobacterium tuberculosis H37Rv
T6 sequence (P9WQ59 whole entry): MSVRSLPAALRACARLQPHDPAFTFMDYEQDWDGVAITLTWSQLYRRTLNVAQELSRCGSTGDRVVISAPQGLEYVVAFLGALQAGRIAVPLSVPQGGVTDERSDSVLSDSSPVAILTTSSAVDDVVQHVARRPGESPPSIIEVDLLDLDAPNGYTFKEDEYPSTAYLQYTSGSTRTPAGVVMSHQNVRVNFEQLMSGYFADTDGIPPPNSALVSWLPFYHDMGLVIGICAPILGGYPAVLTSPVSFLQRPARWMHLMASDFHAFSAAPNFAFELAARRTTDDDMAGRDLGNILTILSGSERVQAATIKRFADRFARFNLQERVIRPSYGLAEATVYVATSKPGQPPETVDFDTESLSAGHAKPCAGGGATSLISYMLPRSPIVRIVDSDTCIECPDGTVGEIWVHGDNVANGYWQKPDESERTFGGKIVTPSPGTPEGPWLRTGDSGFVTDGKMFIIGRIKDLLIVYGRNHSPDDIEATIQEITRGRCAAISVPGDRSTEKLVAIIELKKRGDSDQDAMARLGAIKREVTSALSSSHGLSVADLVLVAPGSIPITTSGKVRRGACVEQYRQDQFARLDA

Genome polyprotein = Genome polyprotein (dengue virus type 2, UniProt P29990); assay: Dengue-2 NS5 methyltransferase inhibitors, primary screen, biochemical, confirmation dose response (AID 588689); type: functional
Vero = Vero cell cytotoxicity, cytotoxicity control for flavivirus capping enzyme inhibitors (AID 588742); type: functional; conditions: Chlorocebus sabaeus
[15] = cytotoxicity toward DRD oncogenic fibroblasts, dose response, cell-based, non-viral oncogenic, luminescence (AID 1934); type: functional; conditions: Homo sapiens
BJ [16] = assay: cells; type: functional, cell-based; conditions: Homo sapiens, read-out: EC50
BJ [17] = assay: cytotoxicity toward BJ-TERT-LT-ST fibroblasts, dose response, cell-based, RAS-independent, luminescence (AID 1935); type: functional; conditions: Homo sapiens;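 also: BJ fibroblasts immortalized with TERT plus LT and ST oncogenes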
BJ [18] = assay: cytotoxicity toward Ras-transformed BJeLR fibroblasts, dose response, cell-based, alamar blue fluorescence, cherrypicked samples (AID 2631); type: functional; conditions: Homo sapiens;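 also: confirmatory dose-response assay in RAS-dependent BJ fibroblasts engineered with TERT, LT and ST, with cytotoxicity read by fluorescence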
BJ [19] = assay: cytotoxicity toward BJ-TERT fibroblasts, dose response, cell-based, RAS-independent, luminescence (AID 1933); type: functional; conditions: Homo sapiens

Sequence of Melanin-concentrating hormone receptor 1 (Q99705 whole entry): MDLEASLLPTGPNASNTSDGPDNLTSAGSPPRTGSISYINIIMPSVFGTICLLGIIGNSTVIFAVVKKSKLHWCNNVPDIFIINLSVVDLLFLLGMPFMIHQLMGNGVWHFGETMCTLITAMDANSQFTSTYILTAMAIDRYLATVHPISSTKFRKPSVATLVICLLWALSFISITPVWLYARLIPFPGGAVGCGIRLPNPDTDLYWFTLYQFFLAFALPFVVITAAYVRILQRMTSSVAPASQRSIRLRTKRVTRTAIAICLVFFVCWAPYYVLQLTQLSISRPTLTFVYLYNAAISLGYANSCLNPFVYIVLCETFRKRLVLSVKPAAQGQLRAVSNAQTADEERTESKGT
Sequence of Luciferin 4-monooxygenase (P08659 whole entry): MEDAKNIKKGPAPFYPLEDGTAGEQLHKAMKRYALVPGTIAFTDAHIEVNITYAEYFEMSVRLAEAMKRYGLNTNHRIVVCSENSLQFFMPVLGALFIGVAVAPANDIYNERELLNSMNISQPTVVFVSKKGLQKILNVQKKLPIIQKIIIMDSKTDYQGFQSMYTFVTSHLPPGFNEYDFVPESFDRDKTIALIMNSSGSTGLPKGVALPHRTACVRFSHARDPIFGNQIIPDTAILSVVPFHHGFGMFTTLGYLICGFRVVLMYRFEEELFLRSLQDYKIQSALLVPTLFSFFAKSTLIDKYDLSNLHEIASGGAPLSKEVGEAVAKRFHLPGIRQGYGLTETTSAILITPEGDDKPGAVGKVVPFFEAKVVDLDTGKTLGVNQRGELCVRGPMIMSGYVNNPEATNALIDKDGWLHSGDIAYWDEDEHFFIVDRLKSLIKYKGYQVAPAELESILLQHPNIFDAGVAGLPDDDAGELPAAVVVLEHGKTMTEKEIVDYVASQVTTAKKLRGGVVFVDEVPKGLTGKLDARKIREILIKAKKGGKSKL
Sequence of Genome polyprotein (P29990 2492-3391 limits assumed): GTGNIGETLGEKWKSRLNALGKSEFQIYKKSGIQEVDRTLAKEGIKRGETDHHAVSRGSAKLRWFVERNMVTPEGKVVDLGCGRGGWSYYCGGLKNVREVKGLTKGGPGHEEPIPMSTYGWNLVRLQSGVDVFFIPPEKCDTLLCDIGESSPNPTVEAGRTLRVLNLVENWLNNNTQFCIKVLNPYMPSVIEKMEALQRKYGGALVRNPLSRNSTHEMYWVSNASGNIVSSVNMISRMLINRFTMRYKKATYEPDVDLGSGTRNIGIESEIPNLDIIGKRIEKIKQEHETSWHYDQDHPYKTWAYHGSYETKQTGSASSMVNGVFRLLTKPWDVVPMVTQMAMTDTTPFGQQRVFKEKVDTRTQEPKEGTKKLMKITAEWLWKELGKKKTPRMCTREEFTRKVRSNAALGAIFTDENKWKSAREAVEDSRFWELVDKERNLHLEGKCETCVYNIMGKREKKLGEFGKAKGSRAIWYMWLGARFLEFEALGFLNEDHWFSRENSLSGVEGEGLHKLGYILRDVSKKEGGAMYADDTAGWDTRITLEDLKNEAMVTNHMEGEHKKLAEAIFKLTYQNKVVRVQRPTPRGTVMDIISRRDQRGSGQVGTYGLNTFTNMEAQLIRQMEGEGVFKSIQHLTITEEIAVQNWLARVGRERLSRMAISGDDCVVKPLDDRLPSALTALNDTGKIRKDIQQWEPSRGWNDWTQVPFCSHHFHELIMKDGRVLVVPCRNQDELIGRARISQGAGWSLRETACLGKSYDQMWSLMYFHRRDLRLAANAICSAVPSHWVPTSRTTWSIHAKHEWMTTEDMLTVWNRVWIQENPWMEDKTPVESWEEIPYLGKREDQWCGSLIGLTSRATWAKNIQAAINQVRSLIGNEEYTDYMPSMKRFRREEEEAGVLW

O=C(C1CCCCN1Cc1cccc2ccccc12)N1CCN(c2ccc([N+](=O)[O-])cc2)CC1 (centres undefined)
IC50 [1]: > 20 µM (inactive) | IC50 [2]: > 20 µM (inactive)

CSc1ccc(Oc2cnn(Cc3cccc4ccccc34)c(=O)c2Cl)cc1
IC50 [1]: 4.59 µM (active) | IC50 [2]: 9.04 µM (active)

Cc1ccc(NC(=O)O/N=C/c2c(C)nn(C(C)(C)C)c2C)cc1Cl
AC50 (H4 [3]): 0.237 µM (active) | AC50 [4]: 14.8 µM (active) | AC50 (H4 [5]): 0.099 µM (active) | AC50 (H4 [6]): 0.125 µM (active) | IC50 [7]: > 80 µM (inactive)

Fc1ccc(/C=C/c2noc(-c3ccccc3I)n2)cc1
IC50 [8]: 20 µM (active) | IC50 (Caspase-3): 24 µM (active) | IC50 [9]: 7.41 µM (active) | IC50 [10]: 7.78 µM (active) | IC50 [11]: 7.33 µM (active) | IC50 [12]: 23 µM (active) | IC50 [13]: 6.4 µM (active)

O=C(Nc1sc2c(c1C(=O)O)CCCC2)c1cccc(Cl)c1
AC50 [14]: > 100 µM (inactive) | IC50 (Genome polyprotein): 71.8 µM (active) | CC50 (Vero): > 40 µM (active)

Cc1ccc(/C=C2\SC(=S)N(CC3CCCO3)C2=O)o1 (centres undefined)
EC50 [15]: 16.4 µM (active) | EC50 (BJ [16]): > 150 µM (not active) | EC50 (BJ [17]): > 150 µM (not active) | EC50 (BJ [18]): > 133 µM (inactive) | EC50 (BJ [19]): 35.8 µM (inconclusive)
